These results are taken from patent publication US20240150334A1, “HSD17B13 INHIBITORS AND/OR DEGRADERS” (Pfizer Inc., priority 2022, published 2024).

In one test the target is wild type human HSD17B13 (Homo sapiens (Human), UniProt Q7Z5P4). As to the kind of experiment: HEK_Beta-Est LCMS_IC50_Tekcel, whole-cell HEK-HSD17B13 inhibition assay, estrone production by LCMS. As to conditions: geometric mean, HEK cells stably expressing wild type human HSD17B13, 25 μM FAC beta-estradiol, read-out: HEK_Beta-Est LCMS_IC50—Tekcel GMean IC50. The test is classed as cell-based. Put shortly:
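HEK cells expressing wild-type human HSD17B13 were preincubated with compound for 1 hour at 37° C, then the beta-estradiol/NAD+ reaction ran for 2 hours at 37° C. Estrone formed was quantified by LCMS as product area ratio and normalized to uninhibited vehicle-control wells.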

Another test has as its target HSD17B13 enzyme (Homo sapiens (Human), UniProt Q7Z5P4). The test is described as follows: hHSD17B13 IC50 Assay (FAC beta-estradiol), purified protein enzyme activity assay with NAD(P)H-Glo luciferase readout. The test is classed as biochemical. As to conditions: geometric mean, 12 μM FAC beta-estradiol, 500 μM NAD+, read-out: hHSD17B13_IC50 GMean IC50. The method in brief: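 Purified human HSD17B13 (30 nM FAC) incubated with compound, beta-estradiol and NAD+ for 2 h at room temperature in the dark. NADH formation was detected by NAD(P)H-Glo luminescence after 1 h. RLUs normalized to uninhibited enzyme (vehicle) as zero effect.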

Counter-ions that a name gives are not always drawn. A value given as a limit tells only on which side of the number the result lay.

HSD17B13 enzyme, sequence (Q7Z5P4 20-300): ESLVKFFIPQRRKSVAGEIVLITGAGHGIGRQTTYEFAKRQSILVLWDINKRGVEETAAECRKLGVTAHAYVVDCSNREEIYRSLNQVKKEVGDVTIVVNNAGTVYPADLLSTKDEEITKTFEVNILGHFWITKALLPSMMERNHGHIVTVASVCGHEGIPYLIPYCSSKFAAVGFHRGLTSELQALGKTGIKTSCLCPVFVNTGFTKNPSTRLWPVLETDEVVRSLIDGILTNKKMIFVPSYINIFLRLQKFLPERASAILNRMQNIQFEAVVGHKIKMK
wild type human HSD17B13, sequence (Q7Z5P4 20-300): as above

For the compound `CCn1cc(-c2ccc3cn([C@H]4CC[C@H](CNC(=O)c5cc(F)c(O)c(F)c5)CC4)nc3c2)cn1` [Example 47, N-({(1r,4r)-4-[6-(1-ethyl-1H-pyrazol-4-yl)-2H-indazol-2-yl]cyclohexyl}methyl)-3,5-difluoro-4-hydroxybenzamide], the IC50 on wild type human HSD17B13 was 110 nM; on HSD17B13 enzyme it was < 4.4 nM.
Taken in the same sequence, the figures for `O=C(NC[C@]12CC[C@](c3nc(-c4ccc(C(F)(F)F)nc4)no3)(CC1)CC2)c1cc(F)c(O)c(F)c1F` [Example 196, 2,3,5-trifluoro-4-hydroxy-N-[(4-{3-[6-(trifluoromethyl)pyridin-3-yl]-1,2,4-oxadiazol-5-yl}bicyclo[2.2.2]octan-1-yl)methyl]benzamide] were 340 nM and 12 nM.
With `O=C(NC[C@H]1CC[C@H](c2nc(-c3ncc(C(F)(F)F)cn3)no2)CC1)c1cc(F)c(O)cc1F` [Example 198, 2,5-difluoro-4-hydroxy-N-{[(1r,4r)-4-{3-[5-(trifluoromethyl)pyrimidin-2-yl]-1,2,4-oxadiazol-5-yl}cyclohexyl]methyl} benzamide], the IC50 worked out at 310 nM on wild type human HSD17B13 and 6.5 nM at HSD17B13 enzyme.
Take `N#Cc1ccc2cn([C@H]3CC[C@H](CNC(=O)c4cc(F)c(O)c(F)c4)CC3)nc2c1` [Example 134, N-{[(1r,4r)-4-(6-cyano-2H-indazol-2-yl)cyclohexyl]methyl}-3,5-difluoro-4-hydroxybenzamide, ammonium salt]: the IC50 was determined as 470 nM at wild type human HSD17B13 and 32 nM on HSD17B13 enzyme.
Taken in the same sequence, the figures for `COc1ccc(-c2ccc3cn([C@H]4CC[C@H](CNC(=O)c5cc(F)c(O)c(F)c5)CC4)nc3c2)cc1` [Example 67, 3,5-difluoro-4-hydroxy-N-({(1r,4r)-4-[6-(4-methoxyphenyl)-2H-indazol-2-yl]cyclohexyl}methyl) benzamide] were 270 nM and 31 nM.
In the case of `O=C(NC[C@]12CC[C@](c3nc(-c4ccc(C(F)(F)F)nn4)no3)(CC1)CC2)c1cc(F)c(O)c(F)c1` [Example 143, 3,5-difluoro-4-hydroxy-[(4-{3-[6-(trifluoromethyl)pyridazin-3-yl]-1,2,4-oxadiazol-5-yl}bicyclo[2.2.2]octan-1-yl)methyl]benzamide], the IC50 on wild type human HSD17B13 came to 180 nM; on HSD17B13 enzyme, 13 nM.
Take `O=C(NC[C@H]1CC[C@H](n2cc3cc(C(F)(F)F)ccc3n2)CC1)c1cc(F)c(O)c(F)c1` [Example 181, 3,5-difluoro-4-hydroxy-N-({(1r,4r)-4-[5-(trifluoromethyl)-2H-indazol-2-yl]cyclohexyl}methyl) benzamide]: the IC50 on wild type human HSD17B13 worked out at 230 nM; at HSD17B13 enzyme it was 16 nM.
For the compound `O=C(NC[C@H]1CC[C@H](n2cc3ccc(Cl)cc3n2)CC1)c1cc(F)c(O)c(F)c1F` [Example 25, N-{[(1r,4r)-4-(6-chloro-2H-indazol-2-yl)cylohexyl]methyl}-2,3,5-trifluoro-4-hydroxybenzamide], the values for the IC50 on wild type human HSD17B13 and on HSD17B13 enzyme were 300 nM and 14 nM, respectively.
With `O=C(NC[C@H]1CC[C@H](n2cc3cc(Cl)ccc3n2)CC1)c1cc(F)c(O)cc1F` [Example 145, N-{[(1r,4r)-4-(5-chloro-2H-indazol-2-yl)cyclohexyl]methyl}-2,5-difluoro-4-hydroxybenzamide, trifluoroacetate salt], the IC50 was determined as 260 nM at wild type human HSD17B13 and 18 nM on HSD17B13 enzyme.
For the compound `O=C(NC[C@]12CC[C@](c3nc(-c4ccc(C(F)(F)F)nn4)no3)(CC1)CC2)c1cc(F)c(O)c(F)c1F` [Example 184, 2,3,5-trifluoro-4-hydroxy-N-[(4-{3-[6-(trifluoromethyl)pyridazin-3-yl]-1,2,4-oxadiazol-5-yl}bicyclo[2.2.2]octan-1-yl)methyl]benzamide], the IC50 stood at 220 nM on wild type human HSD17B13 and 5.5 nM on HSD17B13 enzyme.
On to `O=C(NC[C@H]1CC[C@H](n2cc3ccc(-c4ccccc4)cc3n2)CC1)c1cc(F)c(O)c(F)c1` [Example 68, 3,5-difluoro-4-hydroxy-N-{[(1r,4r)-4-(6-phenyl-2H-indazol-2-yl)cyclohexyl]methyl} benzamide], for which the IC50 at wild type human HSD17B13 came out at 270 nM; at HSD17B13 enzyme it was 7.8 nM.
As to `O=C(NC[C@H]1CC[C@H](n2cc3cc(-c4cccnc4)ncc3n2)CC1)c1cc(F)c(O)c(F)c1` [Example 199, 3,5-difluoro-4-hydroxy-N-({(1r,4r)-4-[5-(pyridin-3-yl)-2H-pyrazolo[3,4-c]pyridin-2-yl]cyclohexyl}methyl) benzamide], the results for the IC50 at wild type human HSD17B13 and at HSD17B13 enzyme were 370 nM and 8.8 nM, respectively.
Consider `O=C(NC[C@H]1CC[C@H](n2cc3cc(C(F)(F)F)ccc3n2)CC1)c1cc(F)c(O)cc1F` [Example 183, 2,5-difluoro-4-hydroxy-N-({(1r,4r)-4-[5-(trifluoromethyl)-2H-indazol-2-yl]cyclohexyl}methyl)benzamide], for which the IC50 on wild type human HSD17B13 was 450 nM; at HSD17B13 enzyme it was 10 nM.
On the same counts, the results for `Cc1nn(C)cc1-c1ccc2cn([C@H]3CC[C@H](CNC(=O)c4cc(F)c(O)c(F)c4)CC3)nc2c1` [Example 50, N-({(1r,4r)-4-[6-(1,3-dimethyl-1H-pyrazol-4-yl)-2H-indazol-2-yl]cyclohexyl}methyl)-3,5-difluoro-4-hydroxybenzamide] are 250 nM and 11 nM.
On to `O=C(NC[C@H]1CC[C@H](n2cc(-c3ccc4nccnc4c3)nn2)CC1)c1cc(F)c(O)c(F)c1` [Example 18, 3,5-Difluoro-4-hydroxy-N-({(1r,4r)-4-[4-(quinoxalin-6-yl)-1H-1,2,3-triazol-1-yl]cyclohexyl}methyl)benzamide], for which the IC50 at wild type human HSD17B13 was 420 nM; at HSD17B13 enzyme, 18 nM.
With `CS(=O)(=O)c1ccc(-c2noc([C@H]3CC[C@H](CNC(=O)c4cc(F)c(O)c(F)c4)CC3)n2)cc1` [Example 128, 3,5-difluoro-4-hydroxy-N-{[(1r,4r)-4-{3-[4-(methanesulfonyl)phenyl]-1,2,4-oxadiazol-5-yl}cyclohexyl]methyl} benzamide], the IC50 at wild type human HSD17B13 is 400 nM; on HSD17B13 enzyme, 16 nM.
Turning to `COc1ncc(-c2cc3nn([C@H]4CC[C@H](CNC(=O)c5cc(F)c(O)c(F)c5)CC4)cc3cn2)cn1` [Example 8, 3,5-Difluoro-4-hydroxy-N-({(1r,4r)-4-[6-(2-methoxypyrimidin-5-yl)-2H-pyrazolo[4,3-c]pyridin-2-yl]cyclohexyl}methyl)benzamide], the IC50 at wild type human HSD17B13 amounted to 320 nM; at HSD17B13 enzyme, 18 nM.
On to `Cc1cnc(-c2ccc3cn([C@H]4CC[C@H](CNC(=O)c5cc(F)c(O)c(F)c5)CC4)nc3c2)nc1` [Example 74, 3,5-difluoro-4-hydroxy-N-({(1r,4r)-4-[6-(5-methylpyrimidin-2-yl)-2H-indazol-2-yl]cyclohexyl}methyl)benzamide], for which the IC50 on wild type human HSD17B13 is 170 nM; on HSD17B13 enzyme, 12 nM.
Regarding `Cc1ccc2cn([C@H]3CC[C@H](CNC(=O)c4cc(F)c(O)c(F)c4)CC3)nc2c1` [Example 130, 3,5-difluoro-4-hydroxy-N-{[(1r,4r)-4-(6-methyl-2H-indazol-2-yl)cyclohexyl]methyl}benzamide], the results for the IC50 on wild type human HSD17B13 and at HSD17B13 enzyme were 330 nM and 27 nM, respectively.
Take `Cc1cc(C)nc(-c2ccc3cn([C@H]4CC[C@H](CNC(=O)c5cc(F)c(O)c(F)c5)CC4)nc3c2)n1` [Example 52, N-({(1r,4r)-4-[6-(4,6-dimethylpyrimidin-2-yl)-2H-indazol-2-yl]cyclohexyl}methyl)-3,5-difluoro-4-hydroxybenzamide]: the IC50 on wild type human HSD17B13 was 330 nM; at HSD17B13 enzyme, 15 nM.
With `O=C(NC[C@H]1CC[C@H](n2cc3ccc(-c4cncnc4)cc3n2)CC1)c1cc(F)c(O)c(F)c1F` [Example 9, 2,3,5-Trifluoro-4-hydroxy-N-({(1r,4r)-4-[6-(pyrimidin-5-yl)-2H-indazol-2-yl]cyclohexyl}methyl)benzamide], the results for the IC50 at wild type human HSD17B13 and on HSD17B13 enzyme were 170 nM and 13 nM, respectively.
Consider `COc1cccc(-c2ccc3cn([C@H]4CC[C@H](CNC(=O)c5cc(F)c(O)c(F)c5)CC4)nc3c2)c1` [Example 64, 3,5-difluoro-4-hydroxy-N-({(1r,4r)-4-[6-(3-methoxyphenyl)-2H-indazol-2-yl]cyclohexyl}methyl) benzamide], for which the IC50 at wild type human HSD17B13 is 350 nM; at HSD17B13 enzyme, 5.6 nM.
For `O=C(NC[C@]12CC[C@](c3nc(-c4cnc(C(F)(F)F)cn4)no3)(CC1)CC2)c1cc(F)c(O)c(F)c1` [Example 191, 3,5-difluoro-4-hydroxy-N-[(4-{3-[5-(trifluoromethyl)pyrazin-2-yl]-1,2,4-oxadiazol-5-yl}bicyclo[2.2.2]octan-1-yl)methyl]benzamide], the IC50 at wild type human HSD17B13 was determined as 120 nM; at HSD17B13 enzyme, 9.7 nM.
Regarding `O=C(NC[C@]12CC[C@](c3nc(-c4cnc(C(F)(F)F)cn4)no3)(CC1)CC2)c1ccc(O)c(F)c1F` [Example 177, 2,3-difluoro-4-hydroxy-N-[(4-{3-[5-(trifluoromethyl)pyrazin-2-yl]-1,2,4-oxadiazol-5-yl}bicyclo[2.2.2]octan-1-yl)methyl]benzamide], the IC50 amounted to 370 nM at wild type human HSD17B13 and 17 nM on HSD17B13 enzyme.
For `Cc1ccc(-c2noc([C@H]3CC[C@H](CNC(=O)c4cc(F)c(O)c(F)c4F)CC3)n2)nn1` [Example 212, 2,3,5-trifluoro-4-hydroxy-N-({(1r,4r)-4-[3-(6-methylpyridazin-3-yl)-1,2,4-oxadiazol-5-yl]cyclohexyl}methyl) benzamide], the IC50 at wild type human HSD17B13 was 2300 nM; at HSD17B13 enzyme it was 26 nM.
As to `O=C(NC[C@H]1CC[C@H](n2cc3cnc(-c4ccncc4)cc3n2)CC1)c1cc(F)c(O)c(F)c1` [Example 188, 3,5-difluoro-4-hydroxy-N-({(1r,4r)-4-[6-(pyridin-4-yl)-2H-pyrazolo[4,3-c]pyridin-2-yl]cyclohexyl}methyl) benzamide], the IC50 came to 240 nM at wild type human HSD17B13 and 11 nM at HSD17B13 enzyme.
